The assay in a line: Insulinotropin infusion, plasma glucose levels in patients with NIDDM. Type of assay: in vivo. The following applies: raising peptide around meal time alone, for periods of up to one hour.

Turning to “His-Asp-Glu-Phe-Glu-Arg-His-Ala-Glu-Gly-Thr-Phe-Thr-Ser-Asp-Val-Ser-Ser-Tyr-Leu-Glu-Gly-Gln-Ala-Ala-Lys-Glu-Phe-Ile-Ala-Trp-Leu-Val-Lys-Gly-Arg-Gly [GLP-1]”, the glycemic control result is reported as “will not adequately control the glucose levels”.

These data come from patent US20030050237A1, “Prolonged delivery of peptides” (Scios Inc., priority 1993, published 2003).
